Data set [1] is described as follows: Systemic toxicity, daily intraperitoneal injection in nude mice. The conditions noted are these: for Signs of disease: up to 5 days. The protocol:
Four to five-week old pathogen-free nude mice (nu/nu) were used and housed within plastic isolators in a sterile facility. […] Experimental treatments with podophyllotoxin, deoxypodophyllotoxin or picropodophyllin were performed by daily intraperitoneal injections of the compound in 100 μl volume of solvent, composed of a mixture of DMSO and physiological saline (8:2). Control mice were treated with the solvent. 3-6 animals were treated in each group. Animals were monitored three times a week for signs of disease and tumor growth. Tumor mass was estimated using the formula (d^2×D)/2, where d and D represent the small and large diameters of the tumor, respectively. The mice were carefully observed for presence of side effects and were sacrificed at the end of the experiments for histological analysis of the lesions. All experiments were performed according to the ethical guidelines for laboratory animal use, provided by institutional ethical committee.
In the next experiment we analyzed systemic effects of the drugs by injecting 100 μl intraperitoneally of each compound daily over 5 days. Two doses were injected (7 or 28 mg/kg/d) and 3-6 mice were used for each drug and dose. The mice were checked carefully daily for signs of discomfort, diseases and weight loss.

Data set [2] deals with fibroblast growth factor receptor (FGFR). The data set is described as follows: Tyrosine phosphorylation of FGFR in intact FM55 melanoma cells. The following applies: 0.05 μM, 1 h. The class given is cell-based. The protocol:
Cells were cultured to subconfluency in 6-cm plates, and then fresh medium containing 10% FBS and the desired compounds were added for 1 h. The cells were then lyzed and subjected to immunoprecipitation using specific antibodies. Immunoprecipitates were resolved by sodium dodecyl sulphate polyacrylamide gel electrophoresis (SDS-PAGE) and transferred to nitro-cellulose membranes and incubated with anti-phosphotyrosine antibody. Antibodies to actin (in cell extract) or IGF-1R beta subunit were used as loading controls. After detection the films were scanned for quantification.
FM55 melanoma cells were cultured in the same way as described in Experiment 1. When reaching a density of 65,000 cells/cm^2 in the dishes, they were treated for 1 h with 0 (control) and 0.05 μM of picropodophyllin and podophyllotoxin, respectively. The cells were then isolated and subjected to immunoprecipitation of the IGF-1R, fibroblast growth factor receptor (FGFR), platelet-derived growth factor receptor (PDGFR), epidermal growth factor receptor (EGFR), insulin receptor (IR) and insulin substrate-1 (IRS-1) using antibodies to respective molecules. IRS-1 is a substrate of IGF-1R, and therefore its phosphorylation is dependent on phosphorylated IGF-1R. Gelelectrophoresis, Western blotting and quantification of the different signals were performed as described above.

For data set [3], the system named is SK-MEL-28 melanoma cell line. The data set is described as follows: Cell viability (XTT), SK-MEL-28. Format: cell-based. The protocol: (§1) Cell proliferation kit II (Roche Inc.) is based on colorimetric change of the yellow tetrazolium salt XTT in orange formazan dye by the respiratory chain of viable cells (Roehm, N W, et al., J Immunol Methods 142:257-265, 1991). Cells seeded at a concentration of 5000/well in 100 μl medium in a 96-well plate were treated with different drugs in the given concentration. After 24 or 48 h the cells were incubated, according to the manufacturer's protocol, with XTT labelling mixture. After 4 h the formazan dye is quantified using a scanning multiwell spectrophotometer with a 495-nm filter. The absorbance is directly correlated with the number of viable cells. The standard absorbance curve was drawn by means of untreated cells seeded at a concentration of from 1000 to 10 000 cells/well with an increasing rate of 1000 cells/well. All standards and experiments were performed in triplicates.
(§2) 12 different types of cell lines were seeded in 96-well plates (medium volume in a well was 100 μl), at a concentration of 10,000 cells/cm^2 in Minimal Essential Medium supplemented with fetal calf serum. When the cells had reached a concentration of 65,000 cells/cm^2, they were treated with different doses of podophyllotoxin and picropodophyllin for 48 h. Cell viability was then assayed (see above). […]
On the technique in general: Tetrazolium assays rely on reduction of a dye to a coloured formazan, in cell work by metabolically active cells.

For data set [4], the system named is SK-MEL-5 melanoma cell line. The data set is described as follows: Cell viability (XTT), SK-MEL-5. Format: cell-based. As for the experimental part: as §1, §2

Each structure is given as a SMILES string. Where two headings read alike, the source gives them in different places.

`COc1cc([C@@H]2c3cc4c(cc3[C@H](O)[C@H]3COC(=O)[C@H]23)OCO4)cc(OC)c1OC` [Podophyllotoxin, podophyllotoxin]: the “Surviving mice/Investigated mice” value in data set [1] (7 mg/kg/d i.p., 1 d) is listed as 3/3; in data set [1] (7 mg/kg/d i.p., 2 d), 1/3; in data set [1] (7 mg/kg/d i.p., 3 d) it was 0/3; in data set [1] (28 mg/kg/d i.p., 1 d), 2/6; in data set [1] (28 mg/kg/d i.p., 2 d), 0/6. The “Animals dead within 2 days” value in data set [1] (high dose (28 mg/kg/d) i.p.) came to 100%; in data set [1] (low dose (7 mg/kg/d) i.p.) it was 67%. The “Level of phosphorylation in intact cells, substrate FGFR” value in data set [2] is 105 % OD. Moreover, the EC50 in data set [3] (Homo sapiens, SK-MEL-28, 48 h, read-out: EC50 for cell viability) was 20 nM; in data set [4] (Homo sapiens, SK-MEL-5, 48 h, read-out: EC50 for cell viability), 20 nM.

Consider `COc1cc([C@@H]2c3cc4c(cc3[C@H](O)[C@H]3COC(=O)[C@@H]23)OCO4)cc(OC)c1OC` [Picropodophyllin, picropodophyllin], for which the “Surviving mice/Investigated mice” value in data set [1] (7 mg/kg/d i.p., 1 d) is given as 3/3; in data set [1] (7 mg/kg/d i.p., 2 d), 3/3; in data set [1] (7 mg/kg/d i.p., 3 d) it was 3/3; in data set [1] (7 mg/kg/d i.p., 4 d), 3/3; in data set [1] (7 mg/kg/d i.p., 5 d) it was 3/3; in data set [1] (28 mg/kg/d i.p., 1 d), 6/6. The “Surviving mice/Investigated mice” value in data set [1] (28 mg/kg/d i.p., 2 d) is 6/6; in data set [1] (28 mg/kg/d i.p., 3 d), 6/6; in data set [1] (28 mg/kg/d i.p., 4 d), 6/6; in data set [1] (28 mg/kg/d i.p., 5 d), 6/6. Besides, the “Signs of disease” value in data set [1] (high dose (28 mg/kg/d) i.p. daily) and in data set [1] (low dose (7 mg/kg/d) i.p. daily) was “did not exhibit any evidence of disease” throughout. Also, the “Level of phosphorylation in intact cells, substrate FGFR” value in data set [2] was found to be 100 % OD. The EC50 in data set [3] (Homo sapiens, SK-MEL-28, 48 h; read-out: EC50 for cell viability) stood at 30 nM; in data set [4] (Homo sapiens, SK-MEL-5, 48 h; read-out: EC50 for cell viability), 50 nM.

One may read the EC50 as the concentration giving half of the maximal effect.

(Values after patent US7662851B2, “Use of specific cyklolignans” (Axelar AB, priority 2001, dated 2010).)
